Key:
termites = test: AWPA E7-01 field stake test, termite ratings, Gainesville, Florida; type: in vivo; parameters: Average Termite Ratings: scale not given here
Procedure: (§1) Preservative treating solutions were prepared by the mixing the concentrates in Example 1 with ethanol. The treated stakes were installed in Gainesville, Fla. for field performance evaluation following the procedure described in American Wood Preservers' Association (AWPA) Standard E7-01: “Standard Method of Evaluating Wood Preservatives by Field Tests with Stakes”.
(§2) Preservative treating solutions were prepared by the mixing the concentrates in Example 1 with toluene. The treated stakes were installed in Gainesville, Fla. for field performance evaluation following the procedure described in American Wood Preservers' Association (AWPA) Standard E7-01: “Standard Method of Evaluating Wood Preservatives by Field Tests with Stakes”.
Preservative treating solutions were prepared by the mixing the concentrates in Example 2 and 13. The treated stakes were installed in Gainesville, Fla. for field performance evaluation following the procedure described in American Wood Preservers' Association (AWPA) Standard E7-01: “Standard Method of Evaluating Wood Preservatives by Field Tests with Stakes”.
(§3) Preservative treating solutions were prepared by the mixing the concentrates in Example 1 with white spirits. The treated stakes were installed in Gainesville, Fla. for field performance evaluation following the procedure described in American Wood Preservers' Association (AWPA) Standard E7-01: “Standard Method of Evaluating Wood Preservatives by Field Tests with Stakes”.

decay fungi = test: AWPA E7-01 field stake test, decay ratings, Gainesville, Florida; type: in vivo; parameters: Average Decay Ratings: scale not given here
Procedure: as §1, §2
Preservative treating solutions were prepared by the mixing the concentrates in Example 2 and 13. The treated stakes were installed in Gainesville, Fla. for field performance evaluation following the procedure described in American Wood Preservers' Association (AWPA) Standard E7-01: “Standard Method of Evaluating Wood Preservatives by Field Tests with Stakes”. […]
as §3

brown rots or white rots = test: Accelerated decay testing in the lab; conditions: confirmed by accelerated decay testing in the lab
Text: Provided herein is an organic composition and method for use thereof in treatment of cellulosic material, more particularly wood. The composition comprises an azole or quaternary ammonium fungicide compound, and a pyrethroid insecticide. The composition imparts to the treated wood resistance to both fungi and insects. […] This has been confirmed by accelerated decay testing in the lab.

CC(C)(C)C(O)(CCc1ccc(Cl)cc1)Cn1cncn1 (racemic) [Tebuconazole, (RS)-1-p-chlorophenyl-4,4-dimethyl-3-(1H -1,2,4-triazol-1-ylmethyl)pentan-3-ol]
insect / termite attack on treated wood (in words) (termites; different retention levels, text summary of Table 1B): severe insect attack | Average Termite Ratings (termites; retention 0.32 kg/m^3, 12 months, Table 1B, Example 14 ethanol): 4.2 | Average Termite Ratings (termites; retention 0.32 kg/m^3, 12 months, Table 2B, Example 15 toluene): 4.2 | Average Termite Ratings (termites; retention 0.32 kg/m^3, 12 months, Table 3B, Example 16 (concentrates of Examples 2 and 13)): 4.2 | Average Termite Ratings (termites; retention 0.32 kg/m^3, 24 months, Table 1B, Example 14 ethanol): 0.6 | Average Termite Ratings (termites; retention 0.32 kg/m^3, 24 months, Table 2B, Example 15 toluene): 0.6 | Average Termite Ratings (termites; retention 0.32 kg/m^3, 24 months, Table 3B, Example 16 (concentrates of Examples 2 and 13)): 0.6 | Average Termite Ratings (termites; retention 0.32 kg/m^3, 36 months, Table 1B, Example 14 ethanol): 0.0 | Average Termite Ratings (termites; retention 0.32 kg/m^3, 36 months, Table 2B, Example 15 toluene): 0.0 | Average Termite Ratings (termites; retention 0.32 kg/m^3, 36 months, Table 3B, Example 16 (concentrates of Examples 2 and 13)): 0.0 | Average Termite Ratings (termites; retention 0.32 kg/m^3, 48 months, Table 1B, Example 14 ethanol): 0.0 | Average Termite Ratings (termites; retention 0.32 kg/m^3, 48 months, Table 2B, Example 15 toluene): 0.0 | Average Termite Ratings (termites; retention 0.32 kg/m^3, 48 months, Table 3B, Example 16 (concentrates of Examples 2 and 13)): 0.0 | Average Termite Ratings (termites; retention 0.48 kg/m^3, 12 months, Table 1B, Example 14 ethanol): 4.5 | Average Termite Ratings (termites; retention 0.48 kg/m^3, 12 months, Table 2B, Example 15 toluene): 4.5 | Average Termite Ratings (termites; retention 0.48 kg/m^3, 12 months, Table 3B, Example 16 (concentrates of Examples 2 and 13)): 4.5 | Average Termite Ratings (termites; retention 0.48 kg/m^3, 24 months, Table 1B, Example 14 ethanol): 1.2 | Average Termite Ratings (termites; retention 0.48 kg/m^3, 24 months, Table 2B, Example 15 toluene): 1.2 | Average Termite Ratings (termites; retention 0.48 kg/m^3, 24 months, Table 3B, Example 16 (concentrates of Examples 2 and 13)): 1.2 | Average Termite Ratings (termites; retention 0.48 kg/m^3, 36 months, Table 1B, Example 14 ethanol): 0.0 | Average Termite Ratings (termites; retention 0.48 kg/m^3, 36 months, Table 2B, Example 15 toluene): 0.0 | Average Termite Ratings (termites; retention 0.48 kg/m^3, 36 months, Table 3B, Example 16 (concentrates of Examples 2 and 13)): 0.0 | Average Termite Ratings (termites; retention 0.48 kg/m^3, 48 months, Table 1B, Example 14 ethanol): 0.0 | Average Termite Ratings (termites; retention 0.48 kg/m^3, 48 months, Table 2B, Example 15 toluene): 0.0 | Average Termite Ratings (termites; retention 0.48 kg/m^3, 48 months, Table 3B, Example 16 (concentrates of Examples 2 and 13)): 0.0 | Average Termite Ratings (termites; retention 0.64 kg/m^3, 12 months, Table 1B, Example 14 ethanol): 4.8 | Average Termite Ratings (termites; retention 0.64 kg/m^3, 12 months, Table 2B, Example 15 toluene): 4.8 | Average Termite Ratings (termites; retention 0.64 kg/m^3, 12 months, Table 3B, Example 16 (concentrates of Examples 2 and 13)): 4.8 | Average Termite Ratings (termites; retention 0.64 kg/m^3, 24 months, Table 1B, Example 14 ethanol): 2.0 | Average Termite Ratings (termites; retention 0.64 kg/m^3, 24 months, Table 2B, Example 15 toluene): 2.0 | Average Termite Ratings (termites; retention 0.64 kg/m^3, 24 months, Table 3B, Example 16 (concentrates of Examples 2 and 13)): 2.0 | Average Termite Ratings (termites; retention 0.64 kg/m^3, 36 months, Table 1B, Example 14 ethanol): 0.0 | Average Termite Ratings (termites; retention 0.64 kg/m^3, 36 months, Table 2B, Example 15 toluene): 0.0 | Average Termite Ratings (termites; retention 0.64 kg/m^3, 36 months, Table 3B, Example 16 (concentrates of Examples 2 and 13)): 0.0 | Average Termite Ratings (termites; retention 0.64 kg/m^3, 48 months, Table 1B, Example 14 ethanol): 0.0 | Average Termite Ratings (termites; retention 0.64 kg/m^3, 48 months, Table 2B, Example 15 toluene): 0.0 | Average Termite Ratings (termites; retention 0.64 kg/m^3, 48 months, Table 3B, Example 16 (concentrates of Examples 2 and 13)): 0.0 | protection / bio-efficacy against fungal attack (in words) (decay fungi; different retention levels, text summary of Table 1A): certain degree of protection against fungal attack | Average Decay Ratings (decay fungi; retention 0.32 kg/m^3, 12 months, Table 1A, Example 14 ethanol): 8.2 | Average Decay Ratings (decay fungi; retention 0.32 kg/m^3, 12 months, Table 2A, Example 15 toluene): 8.2 | Average Decay Ratings (decay fungi; retention 0.32 kg/m^3, 12 months, Table 3A, Example 16 (concentrates of Examples 2 and 13)): 8.2 | Average Decay Ratings (decay fungi; retention 0.32 kg/m^3, 24 months, Table 1A, Example 14 ethanol): 2.6 | Average Decay Ratings (decay fungi; retention 0.32 kg/m^3, 24 months, Table 2A, Example 15 toluene): 2.6 | Average Decay Ratings (decay fungi; retention 0.32 kg/m^3, 24 months, Table 3A, Example 16 (concentrates of Examples 2 and 13)): 2.6 | Average Decay Ratings (decay fungi; retention 0.32 kg/m^3, 36 months, Table 1A, Example 14 ethanol): 0.0 | Average Decay Ratings (decay fungi; retention 0.32 kg/m^3, 36 months, Table 2A, Example 15 toluene): 0.0 | Average Decay Ratings (decay fungi; retention 0.32 kg/m^3, 36 months, Table 3A, Example 16 (concentrates of Examples 2 and 13)): 0.0 | Average Decay Ratings (decay fungi; retention 0.32 kg/m^3, 48 months, Table 1A, Example 14 ethanol): 0.0 | Average Decay Ratings (decay fungi; retention 0.32 kg/m^3, 48 months, Table 2A, Example 15 toluene): 0.0 | Average Decay Ratings (decay fungi; retention 0.32 kg/m^3, 48 months, Table 3A, Example 16 (concentrates of Examples 2 and 13)): 0.0 | Average Decay Ratings (decay fungi; retention 0.48 kg/m^3, 12 months, Table 1A, Example 14 ethanol): 5.8 | Average Decay Ratings (decay fungi; retention 0.48 kg/m^3, 12 months, Table 2A, Example 15 toluene): 5.8 | Average Decay Ratings (decay fungi; retention 0.48 kg/m^3, 12 months, Table 3A, Example 16 (concentrates of Examples 2 and 13)): 5.8 | Average Decay Ratings (decay fungi; retention 0.48 kg/m^3, 24 months, Table 1A, Example 14 ethanol): 0.8 | Average Decay Ratings (decay fungi; retention 0.48 kg/m^3, 24 months, Table 2A, Example 15 toluene): 0.8 | Average Decay Ratings (decay fungi; retention 0.48 kg/m^3, 24 months, Table 3A, Example 16 (concentrates of Examples 2 and 13)): 0.8 | Average Decay Ratings (decay fungi; retention 0.48 kg/m^3, 36 months, Table 1A, Example 14 ethanol): 0.0 | Average Decay Ratings (decay fungi; retention 0.48 kg/m^3, 36 months, Table 2A, Example 15 toluene): 0.0 | Average Decay Ratings (decay fungi; retention 0.48 kg/m^3, 36 months, Table 3A, Example 16 (concentrates of Examples 2 and 13)): 0.0 | Average Decay Ratings (decay fungi; retention 0.48 kg/m^3, 48 months, Table 1A, Example 14 ethanol): 0.0 | Average Decay Ratings (decay fungi; retention 0.48 kg/m^3, 48 months, Table 2A, Example 15 toluene): 0.0 | Average Decay Ratings (decay fungi; retention 0.48 kg/m^3, 48 months, Table 3A, Example 16 (concentrates of Examples 2 and 13)): 0.0 | Average Decay Ratings (decay fungi; retention 0.64 kg/m^3, 12 months, Table 1A, Example 14 ethanol): 8.7 | Average Decay Ratings (decay fungi; retention 0.64 kg/m^3, 12 months, Table 2A, Example 15 toluene): 8.7 | Average Decay Ratings (decay fungi; retention 0.64 kg/m^3, 12 months, Table 3A, Example 16 (concentrates of Examples 2 and 13)): 8.7 | Average Decay Ratings (decay fungi; retention 0.64 kg/m^3, 24 months, Table 1A, Example 14 ethanol): 1.2 | Average Decay Ratings (decay fungi; retention 0.64 kg/m^3, 24 months, Table 2A, Example 15 toluene): 1.2 | Average Decay Ratings (decay fungi; retention 0.64 kg/m^3, 24 months, Table 3A, Example 16 (concentrates of Examples 2 and 13)): 1.2 | Average Decay Ratings (decay fungi; retention 0.64 kg/m^3, 36 months, Table 1A, Example 14 ethanol): 0.0 | Average Decay Ratings (decay fungi; retention 0.64 kg/m^3, 36 months, Table 2A, Example 15 toluene): 0.0 | Average Decay Ratings (decay fungi; retention 0.64 kg/m^3, 36 months, Table 3A, Example 16 (concentrates of Examples 2 and 13)): 0.0 | Average Decay Ratings (decay fungi; retention 0.64 kg/m^3, 48 months, Table 1A, Example 14 ethanol): 0.0 | Average Decay Ratings (decay fungi; retention 0.64 kg/m^3, 48 months, Table 2A, Example 15 toluene): 0.0 | Average Decay Ratings (decay fungi; retention 0.64 kg/m^3, 48 months, Table 3A, Example 16 (concentrates of Examples 2 and 13)): 0.0

CC1(C)C(C=C(Cl)Cl)C1C(=O)OCc1cccc(Oc2ccccc2)c1 (centres unmarked) [permethrin]
fungicidal activity against brown rots or white rots (brown rots or white rots): do not have fungicidal activity

Cc1c(COC(=O)[C@@H]2[C@H](/C=C(\Cl)C(F)(F)F)C2(C)C)cccc1-c1ccccc1 (racemic) [bifenthrin]
fungicidal activity against brown rots or white rots (brown rots or white rots): do not have fungicidal activity

CC1(C)C(C=C(Cl)Cl)C1C(=O)OC(C#N)c1cccc(Oc2ccccc2)c1 (centres unmarked) [cypermethrin]
fungicidal activity against brown rots or white rots (brown rots or white rots): do not have fungicidal activity

Reference: patent US20070021385A1, “Compositions and methods for wood preservation” (priority 2005, published 2007)
